# Data reported in PubChem BioAssay AID2060882 (Molecular Pharmacology Branch, DTP, NCI, 2025).
# Tested on: 898857-211-R-J1-PDC complex spheroids, growth % test/control
# Test: Anticancer human tumor 898857-211-R-J1-PDC patient-derived melanoma cell line growth inhibition [RAS]
# Conditions: for IC50: curve of first compound; for viability, T/C: stronger effect = lower value
# Summary of the method: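 Multi-cell-type spheroids: tumor cells plus HUVEC endothelial cells and mesenchymal stem cells. RAS-pathway inhibitors were combined with targeted agents, each dosed in half-log steps down from clinical Cmax, or from 10 microM when Cmax was unknown.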
# [1] = second compound 0.000949 µM, first compound 0.0316 µM
# [2] = second compound 0.000949 µM, first compound 0.1 µM
# [3] = second compound 0.000949 µM, first compound 0.316 µM
# [4] = second compound 0.000949 µM, first compound 1 µM
# [5] = second compound 0.000949 µM, first compound 3.16 µM
# [6] = second compound 0.000949 µM, first compound 10 µM
# [7] = second compound 0.003 µM, first compound 0.0316 µM
# [8] = second compound 0.003 µM, first compound 0.1 µM
# [9] = second compound 0.003 µM, first compound 0.316 µM
# [10] = second compound 0.003 µM, first compound 1 µM
# [11] = second compound 0.003 µM, first compound 3.16 µM
# [12] = second compound 0.003 µM, first compound 10 µM
# [13] = second compound 0.00949 µM, first compound 0.0316 µM
# [14] = second compound 0.00949 µM, first compound 0.1 µM
# [15] = second compound 0.00949 µM, first compound 0.316 µM
# [16] = second compound 0.00949 µM, first compound 1 µM
# [17] = second compound 0.00949 µM, first compound 3.16 µM
# [18] = second compound 0.00949 µM, first compound 10 µM
# [19] = second compound 0.03 µM, first compound 0.0316 µM
# [20] = second compound 0.03 µM, first compound 0.1 µM
# [21] = second compound 0.03 µM, first compound 0.316 µM
# [22] = second compound 0.03 µM, first compound 1 µM
# [23] = second compound 0.03 µM, first compound 3.16 µM
# [24] = second compound 0.03 µM, first compound 10 µM
# [25] = second compound 0.0949 µM, first compound 0.0316 µM
# [26] = second compound 0.0949 µM, first compound 0.1 µM
# [27] = second compound 0.0949 µM, first compound 0.316 µM
# [28] = second compound 0.0949 µM, first compound 1 µM
# [29] = second compound 0.0949 µM, first compound 3.16 µM
# [30] = second compound 0.0949 µM, first compound 10 µM
# [31] = second compound 0.3 µM, first compound 0.0316 µM
# [32] = second compound 0.3 µM, first compound 0.1 µM
# [33] = second compound 0.3 µM, first compound 0.316 µM
# [34] = second compound 0.3 µM, first compound 1 µM
# [35] = second compound 0.3 µM, first compound 3.16 µM
# [36] = second compound 0.3 µM, first compound 10 µM
# 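Further: spheroids exposed to compound for seven days before readout.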
# 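Wherever viability, T/C is given: 100% = DMSO vehicle control wells.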
compound,measurement,setting,value
CC(C)NCC(C(=O)N1CCN(c2ncnc3c2C(C)CC3O)CC1)c1ccc(Cl)cc1 (stereo not drawn) + CCn1c(-c2cc(N3CCN(C)CC3)cnc2C(C)OC)c2c3cc(ccc31)-c1csc(n1)CC(NC(=O)C1CC1C)C(=O)N1CCCC(N1)C(=O)OCC(C)(C)C2,IC50,second compound 0.000949 µM,> 10000 nM
same,IC50,second compound 0.003 µM,7540 nM
same,IC50,second compound 0.00949 µM,7680 nM
same,IC50,second compound 0.03 µM,6370 nM
same,IC50,second compound 0.0949 µM,8160 nM
same,IC50,second compound 0.3 µM,6160 nM
same,"viability, T/C",[1],105%
same,"viability, T/C",[2],105%
same,"viability, T/C",[3],103%
same,"viability, T/C",[4],76.7%
same,"viability, T/C",[5],58.6%
same,"viability, T/C",[6],50.5%
same,"viability, T/C",[7],102%
same,"viability, T/C",[8],106%
same,"viability, T/C",[9],93.5%
same,"viability, T/C",[10],82.1%
same,"viability, T/C",[11],63.3%
same,"viability, T/C",[12],45.6%
same,"viability, T/C",[13],85.4%
same,"viability, T/C",[14],101%
same,"viability, T/C",[15],82%
same,"viability, T/C",[16],82%
same,"viability, T/C",[17],61.4%
same,"viability, T/C",[18],46.6%
same,"viability, T/C",[19],94%
same,"viability, T/C",[20],109%
same,"viability, T/C",[21],96%
same,"viability, T/C",[22],75.7%
same,"viability, T/C",[23],61.2%
same,"viability, T/C",[24],43.5%
same,"viability, T/C",[25],99.4%
same,"viability, T/C",[26],107%
same,"viability, T/C",[27],104%
same,"viability, T/C",[28],79.6%
same,"viability, T/C",[29],69.1%
same,"viability, T/C",[30],45.6%
same,"viability, T/C",[31],99.9%
same,"viability, T/C",[32],97.2%
same,"viability, T/C",[33],86.2%
same,"viability, T/C",[34],91.8%
same,"viability, T/C",[35],63.9%
same,"viability, T/C",[36],39.8%
CC(C)n1nc(-c2ccc3oc(N)nc3c2)c2c(N)ncnc21 + CCn1c(-c2cc(N3CCN(C)CC3)cnc2C(C)OC)c2c3cc(ccc31)-c1csc(n1)CC(NC(=O)C1CC1C)C(=O)N1CCCC(N1)C(=O)OCC(C)(C)C2,IC50,second compound 0.000949 µM,20.5 nM
same,IC50,second compound 0.003 µM,19.3 nM
same,IC50,second compound 0.00949 µM,17.3 nM
same,IC50,second compound 0.03 µM,13.7 nM
same,IC50,second compound 0.0949 µM,18.2 nM
same,IC50,second compound 0.3 µM,14.9 nM
same,"viability, T/C","second compound 0.000949 µM, first compound 0.000316 µM",98%
same,"viability, T/C","second compound 0.000949 µM, first compound 0.001 µM",82.6%
same,"viability, T/C","second compound 0.000949 µM, first compound 0.00316 µM",89.9%
same,"viability, T/C","second compound 0.000949 µM, first compound 0.01 µM",63.3%
same,"viability, T/C",[1],41.1%
same,"viability, T/C",[2],16.7%
same,"viability, T/C","second compound 0.003 µM, first compound 0.000316 µM",100%
same,"viability, T/C","second compound 0.003 µM, first compound 0.001 µM",92.8%
same,"viability, T/C","second compound 0.003 µM, first compound 0.00316 µM",86.5%
same,"viability, T/C","second compound 0.003 µM, first compound 0.01 µM",69.3%
same,"viability, T/C",[7],35.6%
same,"viability, T/C",[8],14.1%
same,"viability, T/C","second compound 0.00949 µM, first compound 0.000316 µM",92%
same,"viability, T/C","second compound 0.00949 µM, first compound 0.001 µM",88.3%
same,"viability, T/C","second compound 0.00949 µM, first compound 0.00316 µM",80.2%
same,"viability, T/C","second compound 0.00949 µM, first compound 0.01 µM",63.5%
same,"viability, T/C",[13],35.4%
same,"viability, T/C",[14],15.7%
same,"viability, T/C","second compound 0.03 µM, first compound 0.000316 µM",97.4%
same,"viability, T/C","second compound 0.03 µM, first compound 0.001 µM",91.8%
same,"viability, T/C","second compound 0.03 µM, first compound 0.00316 µM",69.5%
same,"viability, T/C","second compound 0.03 µM, first compound 0.01 µM",57%
same,"viability, T/C",[19],35.2%
same,"viability, T/C",[20],12.4%
same,"viability, T/C","second compound 0.0949 µM, first compound 0.000316 µM",109%
same,"viability, T/C","second compound 0.0949 µM, first compound 0.001 µM",108%
same,"viability, T/C","second compound 0.0949 µM, first compound 0.00316 µM",79.5%
same,"viability, T/C","second compound 0.0949 µM, first compound 0.01 µM",64.6%
same,"viability, T/C",[25],38.5%
same,"viability, T/C",[26],15.1%
same,"viability, T/C","second compound 0.3 µM, first compound 0.000316 µM",103%
same,"viability, T/C","second compound 0.3 µM, first compound 0.001 µM",100%
same,"viability, T/C","second compound 0.3 µM, first compound 0.00316 µM",69.2%
same,"viability, T/C","second compound 0.3 µM, first compound 0.01 µM",56.2%
same,"viability, T/C",[31],40.2%
same,"viability, T/C",[32],12.7%
CC(Nc1ccc2c(c1)OCCn1cc(N3C(=O)OCC3C(F)F)nc1-2)C(N)=O (stereo not drawn) + CCn1c(-c2cc(N3CCN(C)CC3)cnc2C(C)OC)c2c3cc(ccc31)-c1csc(n1)CC(NC(=O)C1CC1C)C(=O)N1CCCC(N1)C(=O)OCC(C)(C)C2,IC50,second compound 0.000949 µM,> 10000 nM
same,IC50,second compound 0.003 µM,> 10000 nM
same,IC50,second compound 0.00949 µM,6620 nM
same,IC50,second compound 0.03 µM,9250 nM
same,IC50,second compound 0.0949 µM,9600 nM
same,IC50,second compound 0.3 µM,8390 nM
same,"viability, T/C",[1],102%
same,"viability, T/C",[2],90.3%
same,"viability, T/C",[3],96%
same,"viability, T/C",[4],73.8%
same,"viability, T/C",[5],66%
same,"viability, T/C",[6],53.2%
same,"viability, T/C",[7],93.4%
same,"viability, T/C",[8],95.7%
same,"viability, T/C",[9],83.6%
same,"viability, T/C",[10],76.4%
same,"viability, T/C",[11],73.3%
same,"viability, T/C",[12],52.2%
same,"viability, T/C",[13],82.5%
same,"viability, T/C",[14],80.4%
same,"viability, T/C",[15],80.2%
same,"viability, T/C",[16],73.5%
same,"viability, T/C",[17],63%
same,"viability, T/C",[18],42.7%
same,"viability, T/C",[19],103%
same,"viability, T/C",[20],91.5%
same,"viability, T/C",[21],80.9%
same,"viability, T/C",[22],72.6%
same,"viability, T/C",[23],68.5%
same,"viability, T/C",[24],45.5%
same,"viability, T/C",[25],106%
same,"viability, T/C",[26],85.1%
same,"viability, T/C",[27],95.3%
same,"viability, T/C",[28],80.5%
same,"viability, T/C",[29],67.8%
same,"viability, T/C",[30],48.1%
same,"viability, T/C",[31],98.3%
same,"viability, T/C",[32],99.3%
same,"viability, T/C",[33],84.2%
same,"viability, T/C",[34],71.7%
same,"viability, T/C",[35],66.1%
same,"viability, T/C",[36],46.4%
C[C@@H](NC(=O)c1ncnc(N)c1Cl)c1ncc(C(=O)Nc2cc(C(F)(F)F)c(Cl)cn2)s1 + CCn1c(-c2cc(N3CCN(C)CC3)cnc2C(C)OC)c2c3cc(ccc31)-c1csc(n1)CC(NC(=O)C1CC1C)C(=O)N1CCCC(N1)C(=O)OCC(C)(C)C2,IC50,second compound 0.000949 µM,1690 nM
same,IC50,second compound 0.003 µM,1340 nM
same,IC50,second compound 0.00949 µM,1300 nM
same,IC50,second compound 0.03 µM,1090 nM
same,IC50,second compound 0.0949 µM,1360 nM
same,IC50,second compound 0.3 µM,1150 nM
same,"viability, T/C",[1],131%
same,"viability, T/C",[2],98.4%
same,"viability, T/C",[3],85%
same,"viability, T/C",[4],59.8%
same,"viability, T/C",[5],38.7%
same,"viability, T/C",[6],20%
same,"viability, T/C",[7],106%
same,"viability, T/C",[8],109%
same,"viability, T/C",[9],71%
same,"viability, T/C",[10],55.2%
same,"viability, T/C",[11],40.7%
same,"viability, T/C",[12],22%
same,"viability, T/C",[13],107%
same,"viability, T/C",[14],99.5%
same,"viability, T/C",[15],83.6%
same,"viability, T/C",[16],53.7%
same,"viability, T/C",[17],33.9%
same,"viability, T/C",[18],21.2%
same,"viability, T/C",[19],107%
same,"viability, T/C",[20],99.3%
same,"viability, T/C",[21],78.8%
same,"viability, T/C",[22],50.3%
same,"viability, T/C",[23],33.4%
same,"viability, T/C",[24],21.7%
same,"viability, T/C",[25],121%
same,"viability, T/C",[26],106%
same,"viability, T/C",[27],72.6%
same,"viability, T/C",[28],52.2%
same,"viability, T/C",[29],38%
same,"viability, T/C",[30],19.6%
same,"viability, T/C",[31],108%
same,"viability, T/C",[32],87.5%
same,"viability, T/C",[33],65.9%
same,"viability, T/C",[34],56.8%
same,"viability, T/C",[35],33.6%
same,"viability, T/C",[36],16.9%
